Each structure is given as a SMILES string. Active and inactive are the calls of the source.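 Rule for the calls: active = compounds giving half or more protection of infected cells from virus-caused growth loss, again on retest; inactive = the rest.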 Where a SMILES comes first, the peptide text is derived from it.

The assay has as its system CEM cells HIV-1 protection, formazan growth assay. Put plainly: NCI AIDS Antiviral Assay. The settings on record: for IC50: measured here: growth of uninfected CEM cells. In outline: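 Soluble formazan readout of cell growth; CEM cells ± HIV-1; 5 drug concs. ≥50% protection → retest; ≥50% again = moderately active; reproducible 100% = confirmed active.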

In the case of `COCn1c(=O)n(C)c(=O)c2c1nc1c(c(=O)n(C)c(=O)n1COC)[n+]2[O-]`, the EC50 is > 200 µM and the IC50 came out at 5.25 µM.
In the same order, the values of `O=C1Nc2cnc(Cl)nc2Nc2cc(Cl)ccc21` are > 200 µM and > 200 µM.
In the case of `CCCC(=O)[O-].CCCC(=O)[O-].N.N.N.N.[Co+3].[O-][Cl+3]([O-])([O-])[O-]`, the outcome was inactive.
For the molecule `O=c1c2c(oc3cc(OCC4CO4)ccc13)CCC2` (stereo unspecified), the EC50 was > 200 µM and the IC50 turned out to be 50.1 µM.
As for `C#Cc1cccc(N2C(=O)CC(=P(c3ccccc3)(c3ccccc3)c3ccccc3)C2=O)c1`, the EC50 is > 11.2 µM and the IC50 was > 11.2 µM.
In the case of `C=CCN1CC2CON(C(=O)C(OC)(c3ccccc3)C(F)(F)F)C2C1C(C)C` (stereo unspecified), the EC50 is > 200 µM and the IC50 is 37.2 µM.
On the same counts, the results for `COc1ccc(/C=C2\CCC(C)/C(=C\c3ccc(OC)c(OC)c3)C2=O)cc1OC` (stereo unspecified) are > 151 µM and 7.94 µM.
In the same order, the values of `CCC(C)C(NC(=O)CNC(=O)CN)C(=O)NCC(=O)NCC(=O)O` (stereo unspecified) (HELM PEPTIDE1{G.G.[CCC(C)C(N[*:1])C(=O)[*:2]].G.G}$$$$V2.0) are > 69.2 µM and > 69.2 µM.
On the same counts, the results for `CC1(C)C2CCC13CS(=O)(=O)N(C(=O)[C@H]1CC=CCC1)C3C2` (stereo partly specified) are > 112 µM and > 112 µM.
For `CCCCCCCCCCCCSSSCCCCCCCCCCCC`, the EC50 was > 200 µM and the half-inhibitory concentration (IC50) was > 200 µM.
With `c1ccc(COC2(OCc3ccccc3)CC3OC2C2NN=NC32)cc1` (stereo unspecified), the EC50 was > 141 µM and the IC50 amounted to 9.77 µM.
In the same order, the values of `CC(=O)Nc1ccc2c(C)c3c4ccccc4n(C)c3nc2n1` are > 200 µM and 5.25 µM.
Take `O=C1c2nn(-c3ccccc3)nc2C(c2ccccc2)N1c1ccccc1` (stereo unspecified): the EC50 was > 14.8 µM and the IC50 was > 14.8 µM.
For the molecule `NCCCC[C@H](NC(=O)[C@H](CS)NC(=O)[C@@H](N)Cc1cnc[nH]1)C(=O)N[C@@H](Cc1ccc(O)cc1)C(=O)N[C@@H](Cc1c[nH]c2ccccc12)C(=O)N[C@@H](Cc1c[nH]c2ccccc12)C(N)=O`, the EC50 was > 200 µM and the IC50 is > 200 µM.
As to `COc1ccc(/C=C2\CCS(=O)(=O)c3ccccc3C2=O)cc1OC`, the EC50 is > 100 µM and the IC50 came to 11.2 µM.
In the same order, the values of `O=[N+]([O-])c1ncn(S(=O)(=O)c2cccc3cccnc23)n1` are > 200 µM and > 200 µM.
In the same order, the values of `COc1ccc2c(c1)CCC1C(=O)NN=C21` (stereo unspecified) are > 776 µM and > 776 µM.
In the same order, the values of `CN(CCC#N)c1ccc(/C=C2\SC(=S)NC2=O)cc1` are > 200 µM and 34.7 µM.
Turning to `CCOC(=O)C1=C(NC(C)(C)C)OCC1=O`, the result was inactive.
Take `O=C(Nc1ccc2[nH]c(=S)sc2c1)Nc1ccccc1F`: the EC50 was > 200 µM and the IC50 was found to be 33.1 µM.
In the same order, the values of `COC(=O)CN(CC1O[C@@H]2OC(C)(C)O[C@@H]2C1N=[N+]=[N-])C(=O)OCc1ccccc1` (stereo partly specified) are > 200 µM and 20.9 µM.
With `OCC(CO)C1c2cccc3ccc4cccc1c4c23`, the result was inactive.
As for `Clc1cc2nnn(C3CCCCO3)c2cc1Cl` (stereo unspecified), the EC50 was > 200 µM and the IC50 was > 200 µM.
Turning to `Cc1ccc2c(c1)S(=O)(=O)N(C)C(c1ccccc1)=C2`, the EC50 is > 18.2 µM and the IC50 is > 18.2 µM.
Regarding `CC(C(=O)O)C(C)(C)C(=O)O` (stereo unspecified), the EC50 is > 200 µM and the IC50 was > 200 µM.
As to `Cc1csc2[nH]c3ccccc3[n+]12`, the outcome was inactive.
In the case of `N#Cc1cccc(N(C(=O)c2ccccc2)c2ccccc2)n1`, the EC50 is > 200 µM and the IC50 was 112 µM.
`CN(C)CC/C(=N\Nc1c(Cl)cccc1Cl)c1ccccc1`: the outcome was inactive.
As to `CCCCCCCCCCCCCCCC(=O)Nc1ccn(C2CCC(COP(=O)(O)OCC3OC(n4ccc(NC(=O)CCCCCCCCCCCCCCC)nc4=O)CC3OP(=O)(O)OCC3OC(n4cc(C)c(=O)[nH]c4=O)CC3N=[N+]=[N-])O2)c(=O)n1` (stereo unspecified), the concentration giving a half-maximal response (EC50) is 0.0282 µM and the IC50 is 15.1 µM.
With `Clc1cc(Cl)nc(Nc2ccc3c(c2)CCC3)n1`, the EC50 was > 200 µM and the IC50 turned out to be 28.2 µM.
Consider `COc1cc2noc(-c3ccccc3)c2cc1OC`, for which the outcome was inactive.
Regarding `c1ccc(C2=C(c3ccccc3)C23SCCS3)cc1`, the EC50 was > 200 µM and the IC50 was found to be 33.9 µM.
Turning to `ClCCCc1ccccc1C1=NCCc2ccccc21`, the EC50 was > 200 µM and the IC50 came to 5.25 µM.
In the same order, the values of `CN(CCC#N)c1ccc(/C=C(\C#N)c2ccc(Cl)cc2)cc1` are > 200 µM and 15.5 µM.
On to `CCCCCCCCCCc1c2nc(c(CCCCCCCCCC)c3ccc([nH]3)c(CCCCCCCCCC)c3ccc([nH]3)c(CCCCCCCCCC)c3nc1C=C3)C=C2`, for which the EC50 was > 100 µM and the IC50 is > 100 µM.
For the molecule `COC(=O)/N=[N+](\[O-])C(c1ccccc1)c1ccccc1`, the EC50 was > 200 µM and the IC50 is 191 µM.
In the same order, the values of `CC(=O)O[C@@H]1C2CCC3C(CC[C@@]4(C)C3CC[C@@H]4C(C)N(C)C)[C@@]2(C)C[C@H](O)[C@@H]1NC(=O)c1ccccc1` (stereo partly specified) are > 1.38 µM and > 1.38 µM.
In the same order, the values of `C=CCN1C(=O)C(c2ccccc2)(c2ccccc2)NC1=S` are > 85.1 µM and > 85.1 µM.
In the same order, the values of `Nc1cn(Cc2ccccc2)c2nc(/C=C3/C=CC=CC3=O)c(O)n12` are > 200 µM and > 200 µM.
Turning to `Cn1cc(NC(=O)Nc2cc(C(=O)Nc3cc(C(=O)Nc4ccc5cc(S(=O)(=O)O)cc(S(=O)(=O)O)c5c4)n(C)n3)n(C)c2)cc1C(=O)Nc1cc(C(=O)Nc2ccc3cc(S(=O)(=O)O)cc(S(=O)(=O)O)c3c2)n(C)n1`, the EC50 is 5.5 µM and the IC50 is > 100 µM.
On the same counts, the results for `Cc1nc2sccn2c1C(=O)NN` are > 1260 µM and 912 µM.
On the same counts, the results for `O=C(NC/C(Br)=C/Br)Nc1cnc2ccccc2c1` are > 200 µM and 81.3 µM.
On the same counts, the results for `Cc1cc(C)c(C2CNCc3cc4c(cc32)CNCC4c2c(C)cc(C)cc2C)c(C)c1` (stereo unspecified) are > 20 µM and 2.57 µM.
On to `N#CNC1=NCCC(=O)N1CCc1c[nH]c2ccccc12`, for which the EC50 was 70.8 µM and the IC50 was > 200 µM.
On the same counts, the results for `[N-]=[N+]=Nc1c(C=O)c(=O)n2c3c(cccc13)CCC2` are > 200 µM and 4.27 µM.
With `CC1CC/C(=C\c2ccc(F)cc2)C2=C1C(c1ccc(F)cc1)n1c(s/c(=C/c3cccc(Br)c3)c1=O)=N2` (stereo unspecified), the result was inactive.
As for `O=C1c2scnc2-c2nccc3c2c1nc1ccccc13`, the EC50 was > 2.51 µM and the 50% inhibitory concentration (IC50) turned out to be 0.457 µM.
Regarding `CCOc1ccc(N=Cc2ccc3cc(C)ccc3n2)cc1`, the result was inactive.
Regarding `CC1(C)CC(C)(Br)C(Br)C(=O)C1C(O)(C(F)(F)F)C(F)(F)F` (stereo unspecified), the EC50 was > 200 µM and the IC50 amounted to 33.1 µM.
For `COC(=O)C(=O)C(C(=O)C(=O)Nc1ccc(Cl)c(Cl)c1)c1nc2ccc(C(=O)c3ccccc3)cc2[nH]c1=O` (stereo unspecified), the EC50 is > 33.1 µM and the IC50 is > 33.1 µM.
As for `Cc1ccc2cc([N+](=O)[O-])c3ccc(C)nc3c2n1`, the EC50 was > 200 µM and the IC50 was determined as 3.16 µM.
In the same order, the values of `NCc1ccc(O)c(O)c1O` are > 200 µM and 9.33 µM.
On the same counts, the results for `Cc1cc(O)c(/C=N/C(N)=S)c(=O)o1` are > 200 µM and > 200 µM.
Turning to `S=C(N/N=C/c1ccccc1)NC12CC3CC(CC(C3)C1)C2`, the result was inactive.
For `COc1cccc(/C=C2\CCCCCC2=O)c1`, the EC50 was > 200 µM and the IC50 is 40.7 µM.
In the case of `C=CCc1cccc(/C=N\N=C(/N)NO)c1O`, the result was inactive.
Consider `N#Cc1nc(-c2ccccn2)oc1N`, for which the EC50 is > 200 µM and the IC50 is > 200 µM.
Take `Cc1cc(C)nc(NS(=O)(=O)c2ccc(Nc3c4ccc(Cl)cc4nc4ncccc34)cc2)n1`: the result was inactive.
For `Cc1c2ccccc2nc(CSCc2ccccc2)[n+]1[O-]`, the EC50 is > 200 µM and the IC50 is 162 µM.
Take `CCCCCCCCCCOCCC(=O)OCC1OC(n2cc(C)c(=O)[nH]c2=O)CC1N=[N+]=[N-]` (stereo unspecified): the result was active and the concentration for half-maximal inhibition (IC50) stood at 33.9 µM.
For the molecule `CC(C)(C)C(=O)/C=C/c1ccccc1F`, the EC50 is > 49 µM and the IC50 was > 49 µM.
As for `O=c1ccnc(SSc2nccc(=O)[nH]2)[nH]1`, the EC50 was > 200 µM and the IC50 is > 200 µM.
Turning to `O=C(O)C1(CC(CCCN2CCCCC2)c2ccccc2)CCCC1` (stereo unspecified), the EC50 is > 200 µM and the IC50 worked out at 191 µM.
Regarding `CCN(CC)CCN(C)CC(C)(C)C(=O)/C=C/c1ccccc1`, the result was inactive.
For `Cc1cc(/C=C2/OC(=O)c3ccccc32)cc(C)c1O`, the EC50 was > 100 µM and the IC50 is > 100 µM.
Consider `O=C1OCN(c2ccccc2)C12CCN(Cc1ccccc1)CC2`, for which the EC50 is > 200 µM and the 50% inhibitory concentration (IC50) worked out at 28.8 µM.
`S=C1NC(c2ccccc2)=NC(Cc2ccccc2)(c2ccccc2)N1c1ccccc1` (stereo unspecified): the result was inactive.
For the molecule `c1ccc2c(c1)nnn2CNc1ccc(N2CCOCC2)cc1`, the EC50 is > 200 µM and the IC50 worked out at 51.3 µM.
As for `CC(=O)NNc1nc(C)c(C(=O)NNC(=O)C(=O)Nc2ccc(Cl)cc2Cl)s1`, the result was inactive.
Turning to `O=c1cc(NCCCCCO)[nH]c(=O)[nH]1`, the EC50 was > 200 µM and the IC50 is > 200 µM.
As to `COc1ccc2nc3cccc([N+](=O)[O-])c3c(NCCNCCN(C)C)c2c1`, the EC50 is > 2 µM and the IC50 amounted to 0.105 µM.
In the same order, the values of `O=c1[nH]c(/C=C(\O)c2ccncc2)nc2ccccc12` are > 2.82 µM and > 2.82 µM.
`O=C1C=CC(=O)c2c1ccc1c2[nH]c2ccccc21`: the result was inactive.

One may read the EC50 as the concentration that produces a half-maximal response. What is called IC50 is the concentration that inhibits the measured activity by half. Lower therefore signals greater potency.

The values above are taken from PubChem BioAssay AID179 (DTP/NCI, 2004).
